How the values were obtained:
[1] = target: Kelch domain of human KEAP1 (321-624 aa) (Homo sapiens (Human), UniProt Q14145); assay: KEAP1 KELCH ThermoFluor binding assay; details: KEAP Kelch […], 1,8-ANS, pH 7.0, average of results obtained, read-out: Tf Kd;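 also: Ligand-induced melting temperature shift of E. coli-expressed KEAP1 Kelch protein, Kd estimated from concentration-response curves of ΔTm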
Text: The shift in the melting point described as a ΔTm is proportional to the concentration and affinity of the ligand. The compound potency may be compared as a rank order of either ΔTm values at a single compound concentration or in terms of KD values, estimated from concentration response curves.
The protein was expressed in E. coli with 6His tag that was cleaved prior to receipt for use.
Protein (KEAP Kelch) and compound solutions were dispensed into black 384-well polypropylene PCR microplates (Abgene) and overlayed with silicone oil (1 μL, Fluka, type DC 200) to prevent evaporation.

[2] = system: Glo-Response ARE-luc2P HEK293 cell line; assay: ARE luciferase reporter cell-based assay; details: Homo sapiens, HEK293, 24 h, average of results obtained;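 also: luciferase signal tracks Nrf2 activation of the ARE once compounds disrupt KEAP1-Nrf2 binding, read with One-Glo reagent, DMSO serving as low control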

Chain of Kelch domain of human KEAP1 (321-624 aa) (Q14145 321-624): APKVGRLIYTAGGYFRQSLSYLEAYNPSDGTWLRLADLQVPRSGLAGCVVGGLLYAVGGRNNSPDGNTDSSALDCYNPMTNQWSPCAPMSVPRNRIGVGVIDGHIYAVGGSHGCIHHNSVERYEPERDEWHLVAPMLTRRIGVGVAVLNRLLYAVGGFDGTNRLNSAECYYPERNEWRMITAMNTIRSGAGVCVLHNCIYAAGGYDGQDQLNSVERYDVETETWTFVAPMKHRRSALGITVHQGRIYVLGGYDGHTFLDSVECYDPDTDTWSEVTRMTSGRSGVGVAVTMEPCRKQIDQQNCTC

## Cc1cc2cc([C@@H](CC(=O)O)c3ccc(C)c(CN4C[C@@H]5CCCCN5c5ncccc5S4(=O)=O)c3)n(C)c2nn1 (single isomer, unassigned) [Example 441, (*S)-3-(3,7-Dimethyl-7H-pyrrolo[2,3-c]pyridazin-6-yl)-3-(3-(((*S)-5,5-dioxido-7,7a,8,9,10,11-hexahydro-6H-dipyrido[2,1-d:2′,3′-f][1,2,5]thiadiazepin-6-yl)methyl)-4-methylphenyl)propanoic Acid]
[1]
  Kd: 60.3 nM
[2]
  EC50: > 20000 nM

## Cc1ccc([C@@H](CC(=O)O)c2ccn3c(C(F)F)nnc3c2C)cc1CN1C[C@@H]2COCCN2c2ncccc2S1(=O)=O (single isomer, unassigned) [Example 459, (*R)-3-(3-(Difluoromethyl)-8-methyl-[1,2,4]triazolo[4,3-a]pyridin-7-yl)-3-(3-(((*R)-5,5-dioxido-7a,8,10,11-tetrahydro-[1,4]oxazino[3,4-d]pyrido[2,3-f][1,2,5]thiadiazepin-6(7H)-yl)methyl)-4-methylphenyl)propanoic Acid]
[1]
  Kd: 1.19 nM
[2]
  EC50: 203 nM

## Cc1ccc([C@@H](CC(=O)O)c2ccn3c(C(F)F)nnc3c2C)cc1CN1C[C@H]2CCCCN2c2ncc(C#N)cc2S1(=O)=O (single isomer, unassigned) [Example 30, (*R)-3-(3-(((*R)-3-Cyano-5,5-dioxido-7,7a,8,9,10,11-hexahydro-6H-dipyrido[2,1-d:2′,3′-f][1,2,5]thiadiazepin-6-yl)methyl)-4-methylphenyl)-3-(3-(difluoromethyl)-8-methyl-[1,2,4]triazolo[4,3-a]pyridin-7-yl)propanoic Acid]
[1]
  Kd: < 1 nM
[2]
  EC50: 73.7 nM

## Cc1cnc2c(c1)S(=O)(=O)N(Cc1cc([C@@H](c3ccc4c(nnn4C4CC4)c3C)C(C)(C)C(=O)O)cnc1C)CC1(CC1)O2 (single isomer, unassigned) [Example 395, (*S)-3-(1-Cyclopropyl-4-methyl-1H-benzo[d][1,2,3]triazol-5-yl)-2,2-dimethyl-3-(6-methyl-5-((8′-methyl-1′,1′-dioxidospiro[cyclopropane-1,4′-pyrido[2,3-b][1,4,5]oxathiazepin]-2′(3′H)-yl)methyl)pyridin-3-yl)propanoic Acid]
[1]
  Kd: < 1 nM
[2]
  EC50: 15.7 nM

## Cc1ccc([C@H](c2ccn3c(C(F)(F)F)nnc3c2C)C(C)(C)C(=O)O)cc1CN1CC2(CCOCC2)Oc2nc(OCCC3CCNCC3)c(C)cc2S1(=O)=O (single isomer, unassigned) [Example 369, (*R)-2,2-Dimethyl-3-(4-methyl-3-(8′-methyl-1′,1′-dioxido-7′-(2-(piperidin-4-yl)ethoxy)-2,3,5,6-tetrahydrospiro[pyran-4,4′-pyrido[2,3-b][1,4,5]oxathiazepin]-2′(3′H)-yl)methyl)-4-methylphenyl)-2,2-dimethyl-3-(8-methyl-3-(trifluoromethyl)-[1,2,4]triazolo[4,3-a][pyridine-7-yl)propanoic Acid]
[1]
  Kd: < 1 nM
[2]
  EC50: 176 nM

## Cc1ccc([C@@H](c2ccn3c(C(F)(F)F)nnc3c2C)C(C)(C)C(=O)O)cc1CN1CC2(CC2)Oc2nc(OCCN3CCCCC3)c(C)cc2S1(=O)=O (single isomer, unassigned) [Example 372, (*S)-2,2-Dimethyl-3-(4-methyl-3-((8′-methyl-1′,1′-dioxido-7′-(2-(piperidin-1-yl)ethoxy)spiro[cyclopropane-1,4′-pyrido[2,3-b][1,4,5]oxathiazepin]-2′(3′H)-yl)methyl)phenyl)-3-(8-methyl-3-(trifluoromethyl)-[1,2,4]triazolo[4,3-a]pyridine-7-yl)propanoic Acid]
[1]
  Kd: < 1 nM
[2]
  EC50: 2.9 nM

## Cc1cnc2c(c1)S(=O)(=O)N(Cc1cc([C@H](c3ccc4c(nnn4C4CC4)c3C)C(C)(C)C(=O)O)cnc1C)CC1(CCOCC1)O2 (single isomer, unassigned) [Example 228, (*S)-3-(1-Cyclopropyl-4-methyl-1H-benzo[d][1,2,3]triazol-5-yl)-2,2-dimethyl-3-(6-methyl-5-((8′-methyl-1′,1′-dioxido-2,3,5,6-tetrahydrospiro[pyran-4,4′-pyrido[2,3-b][1,4,5]oxathiazepin]-2′(3′H)-yl)methyl)pyridin-3-yl)propanoic Acid]
[1]
  Kd: < 1 nM
[2]
  EC50: 10 nM

## Cc1cc2cc([C@H](CC(=O)O)c3ccc(C)c(CN4C[C@@H]5CCCCN5c5ncccc5S4(=O)=O)c3)n(C)c2nn1 (single isomer, unassigned) [Example 442, (*R)-3-(3,7-Dimethyl-7H-pyrrolo[2,3-c]pyridazin-6-yl)-3-(3-(((*S)-5,5-dioxido-7,7a,8,9,10,11-hexahydro-6H-dipyrido[2,1-d:2′,3′-f][1,2,5]thiadiazepin-6-yl)methyl)-4-methylphenyl)propanoic Acid]
[1]
  Kd: < 1 nM
[2]
  EC50: 553 nM

## Cc1cc2cc(C(CC(=O)O)c3ccc(C)c(CN4C[C@H]5CCCCN5c5ncccc5S4(=O)=O)c3)n(C)c2nn1 (stereo in doubt) [Example 443, 3-(3,7-Dimethyl-7H-pyrrolo[2,3-c]pyridazin-6-yl)-3-(3-(((*R)-5,5-dioxido-7,7a,8,9,10,11-hexahydro-6H-dipyrido[2,1-d:2′,3′-f][1,2,5]thiadiazepin-6-yl)methyl)-4-methylphenyl)propanoic Acid]
[1]
  Kd: < 1 nM
[2]
  EC50: 1100 nM

## Cc1ccc(C(CC(=O)O)c2ccn3c(C(F)(F)F)nnc3c2C)nc1CN1CC2CCCCN2c2ncc(Cl)cc2S1(=O)=O (stereo not drawn) [Example 518, 3-(6-((3-Chloro-5,5-dioxido-7,7a,8,9,10,11-hexahydro-6H-dipyrido[2,1-d:2′,3′-f][1,2,5]thiadiazepin-6-yl)methyl)-5-methylpyridin-2-yl)-3-(8-methyl-3-(trifluoromethyl)-[1,2,4]triazolo[4,3-a]pyridin-7-yl)propanoic Acid]
[1]
  Kd: < 1 nM
[2]
  EC50: 3.48 nM

## CCn1nnc2c(C)c([C@H](CC(=O)O)c3ccc(C)c(CN4C[C@@H]5CCCCN5c5ncccc5S4(=O)=O)n3)ccc21 (single isomer, unassigned) [Example 302, (*S)-3-(6-(((*S)-5,5-Dioxido-7,7a,8,9,10,11-hexahydro-6H-dipyrido[2,1-d:2′,3′-][1,2,5]thiadiazepin-6-yl)methyl)-5-methylpyridin-2-yl)-3-(1-ethyl-4-methyl-1H-benzo[d][1,2,3]triazol-5-yl)propanoic Acid]
[1]
  Kd: < 1 nM
[2]
  EC50: 2.8 nM

## Cc1ccc(C(c2ccn3c(C(F)(F)F)nnc3c2C)C(C)(C)C(=O)O)cc1CN1CC2(CCOCC2)Oc2nc(N[C@@H](C)CCO)ccc2S1(=O)=O (stereo partly drawn) [Example 118]
[1]
  Kd: < 1 nM
[2]
  EC50: 324 nM

## Cc1ccc(C(CC(=O)O)c2ccn3c(C(F)F)nnc3c2C)cc1CN1C[C@H]2CCCN2c2ncccc2S1(=O)=O (mixture of isomers) [Example 449, 3-(3-(Difluoromethyl)-8-methyl-[1,2,4]triazolo[4,3-a]pyridin-7-yl)-3-(3-(((R)-5,5-dioxido-7a,8,9,10-tetrahydropyrido[2,3-f]pyrrolo[2,1-d][1,2,5]thiadiazepin-6(7H)-yl)methyl)-4-methylphenyl)propanoic Acid]
[1]
  Kd: < 1 nM
[2]
  EC50: 47.6 nM

## Cc1cnc2c(c1)S(=O)(=O)N(Cc1cc([C@H](c3ccn4c(C(F)(F)F)nnc4c3C)C(C)(C)C(=O)O)ccc1C)CC1(CC1)O2 (single isomer, unassigned) [Example 315, (*R)-2,2-Dimethyl-3-(4-methyl-3-((8′-methyl-1′,1′-dioxidospiro[cyclopropane-1,4′-pyrido[2,3-b][1,4,5]oxathiazepin]-2′(3′H)-yl)methyl)phenyl)-3-(8-methyl-3-(trifluoromethyl)-[1,2,4]triazolo[4,3-a]pyridin-7-yl)propanoic Acid]
[1]
  Kd: 287 nM
[2]
  EC50: 148 nM

## Cc1ccc(C(CC(=O)O)c2cc(OC3CC3)c3c(c2)nnn3C)cc1CN1C[C@H]2CCCCN2c2ncccc2S1(=O)=O (stereo in doubt) [Example 403, 3-(7-Cyclopropoxy-1-methyl-1H-benzo[d][1,2,3]triazol-5-yl)-3-(3-(((*R)-5,5-dioxido-7,7a,8,9,10,11-hexahydro-6H-dipyrido[2,1-d:2′,3′-f][1,2,5]thiadiazepin-6-yl)methyl)-4-methylphenyl)propanoic Acid]
[1]
  Kd: < 1 nM
[2]
  EC50: 20.8 nM

## Cc1ccc([C@H](CC(=O)O)c2ccc3c(nnn3C3CC3)c2C)cc1CN1C[C@@]2(C)CCCN2c2ncccc2S1(=O)=O (single isomer, unassigned) [Example 222, (*S)-3-(1-Cyclopropyl-4-methyl-1H-benzo[d][1,2,3]triazol-5-yl)-3-(4-methyl-3-(((*R)-7a-methyl-5,5-dioxido-7a,8,9,10-tetrahydropyrido[2,3-f]pyrrolo[2,1-d][1,2,5]thiadiazepin-6(7H)-yl)methyl)phenyl)propanoic Acid]
[1]
  Kd: 14 nM
[2]
  EC50: 350 nM

## CCc1nnc2c(C)c([C@@H](CC(=O)O)c3ccc(C)c(CN4C[C@H]5CCCN5c5ccccc5S4(=O)=O)c3)ccn12 (single isomer, unassigned) [Example 279, (*S)-3-(3-(((R)-5,5-Dioxido-7a,8,9,10-tetrahydrobenzo[f]pyrrolo[2,1-d][1,2,5]thiadiazepin-6(7H)-yl)methyl)-4-methylphenyl)-3-(3-ethyl-8-methyl-[1,2,4]triazolo[4,3-a]pyridin-7-yl)propanoic Acid]
[1]
  Kd: < 1 nM
[2]
  EC50: 235 nM

## Cc1ccc([C@H](CC(=O)O)c2ccn3c(C(F)(F)F)nnc3c2C)cc1CN1CC2(CC2)Oc2ncc(F)cc2S1(=O)=O (single isomer, unassigned) [Example 311, (*S)-3-(3-((8′-Fluoro-1′,1′-dioxidospiro[cyclopropane-1,4′-pyrido[2,3-b][1,4,5]oxathiazepin]-2′(3′H)-yl)methyl)-4-methylphenyl)-3-(8-methyl-3-(trifluoromethyl)-[1,2,4]triazolo[4,3-a]pyridin-7-yl)propanoic Acid]
[1]
  Kd: < 1 nM
[2]
  EC50: 9.3 nM
